Test results taken from publication PMC11795524, “Melanin-Binding-Based Discovery of Topically Instilled Carbonic Anhydrase Inhibitors for Targeted Delivery and Prolonged Action in the Eye” (Molecular Pharmaceutics, 2025).

Assay: Ocular pharmacokinetics in albino rats (iris-ciliary body, 3H-A01)
Format: in vivo, rat
Excerpt: Eight albino rats (RccHan/Wist) and 18 pigmented rats (HsdOla/LH) were obtained from Envigo Laboratories B.V. (The Netherlands) and were used in pharmacokinetic experiments. Additional 13 albino and 13 pigmented rats were used in generation of the analytical standards. Young adult (3–4 months; 340–445 g) rats were used.
To conduct the pharmacokinetic study, bromo-containing CAI A15 (molecular structure presented in Table 1) was conveniently converted into [^3H]-A01 through catalytic dehalogenation in tritium gas. A15 (3.05 mg, 8.2 μmol) was dissolved in dimethylformamide (0.3 mL) and exposed to 99 mbar of tritium gas in a tritium manifold system for 1.5 h in the presence of 10% palladium on carbon (0.57 mg). Following filtration, the reaction mixture underwent double lyophilization with 1 mL ethanol to eliminate labile tritium. […] The crude material was purified via high-performance liquid chromatography, employing a Reprosil-Pur C18-HD column (250 × 10 mm, 5 μm), with a mobile phase comprising 40% acetonitrile in 50 mM ammonium hydrogen carbonate. Purified fractions were subsequently combined, subjected to solid-phase extraction, and eluted with ethanol. Radiochemical analysis indicated a purity exceeding 97%, with a molar activity of 0.29 TBq/mmol (7.9 Ci/mmol) and a total activity of 850 MBq (23 mCi). The solution of 1% A01 (10 mg/mL) was prepared similarly as in the IOP study (see Table 1) except that the solution contained also 72 μg/mL of [^3H]–A01 (specific activity 27.21 mCi/mg). The solution was prepared freshly for each experiment.
Seven μL of A01 solution (10 mg/mL including 72 μg/mL of ^3H–A01) was topically applied to both eyes of albino and pigmented rats. Rats were euthanized with carbon dioxide and cervical dislocation. The eyes (n = 4) of albino rats were collected 0.5, 2, 4, and 7 h after treatment. The eyes of pigmented rats were dissected 0.5, 2, 4, 7, 24, 48, 72, 144, and 240 h after eye drop instillation. The eyes were enucleated and dissected immediately after euthanasia. Iris-ciliary body was dissected, snap frozen on dry ice, and stored at −80 °C until analysis. The analyses were conducted within 24 h from tissue dissection.
Bound and unbound radioactivity of tritiated A01 was determined from dissected iris-ciliary body samples. First, the tissues were mechanically homogenized and diluted with 0.9% sodium chloride (weight ratio 35:1). Then, cellular unbound A01 was released from the iris-ciliary body cells by freezing and thawing the solutions three times with dry ice and a water bath (37 °C). Thereafter, the supernatant and pellet were separated by centrifuging the samples for 10 min at 13,000 rpm. The pellets were dissolved by using 60 min incubation in 100 μL of Solvable (PerkinElmer, Waltham, MA, USA). The samples were then bleached with 10 μL of hydrogen peroxide for 30 min. The pellet volume was calculated as the difference between the total and supernatant volumes.
After subtracting the background radioactivity, the measured net counts per minute (cpm) were converted to disintegrations per minute (dpm) taking into account color quenching and device efficiency. Standard curves were generated for each matrix (albino and pigmented supernatants and pellets; Appendix Figure 1). […] Signal to noise ratios of measured pellet and supernatant samples in liquid scintillation counting are shown in Appendix Table 3.

[1] = iris-ciliary body, single topical eye drop

C/C(=N\Nc1ccc(S(N)(=O)=O)cc1)c1cccnc1 [A01]
concentration at 4 h (RccHan/Wist (albino), rat, topical, 7 µL of 10 mg/mL solution per eye, albino iris-ciliary body, 4 h, read-out: free concentration by 4 h): ~50 ng/g
tmax (bound drug) (albino eyes): 2 h
tmax(total drug) (albino eyes): 2 h
bound concentrations (albino iris-ciliary body): < 0.05 ng/mg
bound fraction (albino iris-ciliary body): below 10%
total concentration after decline (albino iris-ciliary body): ≈ 0.05 ng/mg
Cmax,unbound (albino iris-ciliary body, 2 h postdosing): 0.50 ng/mg
Cmax, total A01 concentration (bound + unbound) (albino iris-ciliary body, 2 h postdosing, 7 μL eye drop 10 mg/mL): 0.54 ng/mg
AUC0-last in albino tissues, bound A01 [1]: 0.09 (ng/mg) × h
AUC0-last in albino tissues, total A01 [1]: 1.37 (ng/mg) × h
AUC0-last in albino tissues, unbound A01 [1]: 1.29 (ng/mg) × h
